Molecular target: human V1a receptor (Homo sapiens (Human), UniProt P37288)
Assay: human V1a receptor binding studies (3H-Vasopressin, SPA beads)
Conditions: membranes of HEK293 cells transiently transfected with human V1a receptor, Ki by Cheng-Prusoff
Protocol: The human V1a receptor was cloned by RT-PCR from total human liver RNA. The coding sequence was subcloned in an expression vector after sequencing to confirm the identity of the amplified sequence. […] Cell membranes were prepared from HEK293 cells transiently transfected with the expression vector and grown in 20 liter fermenters with the following protocol.
50 g of cells are re-suspended in 30 ml freshly prepared ice cold Lysis buffer ([…] HEPES. 1 mM EDTA, 10 mM MgCl2 adjusted to pH=7.4+complete cocktail of protease inhibitor (Roche Diagnostics)). Homogenized with Polytron for 1 min and sonicated on ice for 2×2 minutes at 80% intensity (Vibracell sonicator). The preparation is centrifuged 20 min at 500 g at 4° C., the pellet is discarded and the supernatant centrifuged 1 hour at 43'000 g at 4° C. (19'000 rpm). The pellet is re-suspended in 12.5 ml Lysis buffer+12.5 ml Sucrose 20% and homogenized using a Polytron for 1-2 min. The protein concentration is determined by the Bradford method and aliquots are stored at −80° C. until use. For binding studies 60 mg Yttrium silicate SPA beads (Amersham) are mixed with an aliquot of membrane in binding buffer (50 mM Tris, 120 mM NaCl, 5 mM KCl, 2 mM CaCl2, 10 mM MgCl) for 15 minutes with mixing. 50 μl of bead/membrane mixture is then added to each well of a 96 well plate, followed by […] of 4 nM 3H-Vasopressin (American Radiolabeled Chemicals). For total binding measurement 100 μl of binding buffer are added to the respective wells, for non-specific binding 100 μl of […] cold vasopressin and for compound testing 100 μl of a serial dilution of each compound in 2% DMSO. The plate is incubated 1 h at room temperature, centrifuged 1 min at 1000 g and counted on a Packard Top-Count. Non-specific binding counts are subtracted from each well and data is normalized to the maximum specific binding set at 100%. To calculate an IC 50 the curve is fitted using a non-linear regression model (XLfit) and the Ki is calculated using the Cheng-Prussoff equation.

human V1a receptor, sequence (P37288 whole entry): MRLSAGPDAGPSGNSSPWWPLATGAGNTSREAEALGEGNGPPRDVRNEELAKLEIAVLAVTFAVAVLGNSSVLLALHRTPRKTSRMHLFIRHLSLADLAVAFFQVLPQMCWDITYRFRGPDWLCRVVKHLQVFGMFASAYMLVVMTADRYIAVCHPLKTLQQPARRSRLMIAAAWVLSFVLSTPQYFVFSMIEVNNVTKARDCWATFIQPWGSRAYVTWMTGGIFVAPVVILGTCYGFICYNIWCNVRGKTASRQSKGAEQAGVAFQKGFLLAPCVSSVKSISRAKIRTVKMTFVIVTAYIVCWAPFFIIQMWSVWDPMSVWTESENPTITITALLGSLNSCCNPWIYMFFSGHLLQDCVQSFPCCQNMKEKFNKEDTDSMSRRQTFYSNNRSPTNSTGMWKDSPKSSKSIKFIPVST

Structure (SMILES)	pKi hV1a	Ki (read-out: pKi hV1a (converted))
CC1(C)OC2(CCN(C3=NC(=O)C4(Cc5ccccc5C4)O3)CC2)c2ccccc21 [Example 3, 2′-(3,3-dimethyl-1′H,3H-spiro[2-benzofuran-1,4′-piperidin]-1′-yl)-1,3-dihydro-4′H-spiro[indene-2,5′-[1,3]oxazol]-4′-one]	9.3	–
COc1cccc2c1CC1(C2)OC(N2CCC3(CC2)OC(C)(C)c2ncccc23)=NC1=O (stereo not drawn) [Example 68, 2′-(7,7-dimethyl-1′H,7H-spiro[furo[3,4-b]pyridine-5,4′-piperidin]-1′-yl)-4-methoxy-1,3-dihydro-4′H-spiro[indene-2,5′-[1,3]oxazol]-4′-one]	8.1	–
C[Si](C)(C)c1ccc2c(c1)CC1(C2)OC(N2CCC3(CC2)OCc2ccccc23)=NC1=O (stereo not drawn) [Example 29, 2′-(1′H,3H-spiro[2-benzofuran-1,4′-piperidin]-1′-yl)-5-(trimethylsilyl)-1,3-dihydro-4′H-spiro[indene-2,5′-[1,3]oxazol]-4′-one]	6.2	–
Cc1cccc2c1C(=O)OC21CCN(C2=NC(=O)C3(Cc4ccccc4C3)O2)CC1 [Example 5, 4-methyl-1′-(4′-oxo-1,3-dihydro-4′H-spiro[indene-2,5′-[1,3]oxazol]-2′-yl)-3H-spiro[2-benzofuran-1,4′-piperidin]-3-one]	8.0	–
O=C1OC2(CCN(C3=NC(=O)C4(Cc5ccccc5C4)O3)CC2)c2ccc(F)cc21 [Example 15, 5-fluoro-1′-(4′-oxo-1,3-dihydro-4′H-spiro[indene-2,5′-[1,3]oxazol]-2′-yl)-3H-spiro[2-benzofuran-1,4′-piperidin]-3-one]	8.9	–
Cc1ccc2c(c1)C[C@@]1(C2)OC(N2CCC3(CC2)OC(=O)c2ccccc23)=NC1=O [Example 23, (+)-1′-[5-methyl-4′-oxo-1,3-dihydro-4′H-spiro[indene-2,5′-[1,3]oxazol]-2′-yl]-3H-spiro[2-benzofuran-1,4′-piperidin]-3-one]	7.3	–
O=C1OC2(CCN(C3=NC(=O)C4(Cc5cc(O)c(O)cc5C4)O3)CC2)c2ccccc21 [Example 33, 1′-(5,6-dihydroxy-4′-oxo-1,3-dihydro-4′H-spiro[indene-2,5′-[1,3]oxazol]-2′-yl)-3H-spiro[2-benzofuran-1,4′-piperidin]-3-one]	6.7	–
COc1ccc2c(c1)C(=O)OC21CCN(C2=NC(=O)C3(Cc4ccccc4C3)O2)CC1 [Example 8, 5-methoxy-1′-(4′-oxo-1,3-dihydro-4′H-spiro[indene-2,5′-[1,3]oxazol]-2′-yl)-3H-spiro[2-benzofuran-1,4′-piperidin]-3-one]	8.5	–
Cc1cnc2c(c1)C(=O)OC21CCN(C2=NC(=O)C3(Cc4ccccc4C3)O2)CC1 [Example 45, 3-methyl-1′-(4′-oxo-1,3-dihydro-4′H-spiro[indene-2,5′-[1,3]oxazol]-2′-yl)-5H-spiro[furo[3,4-b]pyridine-7,4′-piperidin]-5-one]	7.6	–
O=C1OC2(CCN(C3=NC(=O)C4(Cc5ccccc5C4)O3)CC2)c2cc(O)c(O)cc21 [Example 13, 5,6-dihydroxy-1′-(4′-oxo-1,3-dihydro-4′H-spiro[indene-2,5′-[1,3]oxazol]-2′-yl)-3H-spiro[2-benzofuran-1,4′-piperidin]-3-one]	8.2	–
O=C1OC2(CCN(C3=NC(=O)C4(CCCc5ccccc54)O3)CC2)c2ccccc21 (stereo not drawn) [Example 63, 1′-(4′-oxo-3,4-dihydro-2H,4′H-spiro[naphthalene-1,5′-[1,3]oxazol]-2′-yl)-3H-spiro[2-benzofuran-1,4′-piperidin]-3-one]	6.7	–
Cc1ccc2c(c1)C[C@]1(C2)OC(N2CCC3(CC2)OC(=O)c2ccccc23)=NC1=O (stereo in doubt) [Example 24, (−)-1′-[5-methyl-4′-oxo-1,3-dihydro-4′H-spiro[indene-2,5′,-[1,3]oxazol]-2′-yl]-3H-spiro[2-benzofuran-1,4′-piperidin]-3-one]	8.6	–
Cc1cc2c(cc1C)CC1(C2)OC(N2CCC3(CC2)OC(=O)c2ccccc23)=NC1=O [Example 26, 1′-(5,6-dimethyl-4′-oxo-1,3-dihydro-4′H-spiro[indene-2,5′-[1,3]oxazol)-2′-yl)-3H-spiro[2-benzofuran-1,4′-piperidin]-3-one]	6.4	–
CC1(C)OC2(CCN(C3=NC(=O)C4(Cc5ccccc5C4)O3)CC2)c2cccnc21 [Example 39, 2′-(7,7-dimethyl-1′H,7H-spiro[furo[3,4-b]pyridine-5,4′-piperidin]-1′-yl)-1,3-dihydro-4′H-spiro[indene-2,5′-[1,3]oxazol]-4′-one]	9.1	–
Cc1ccc2c(n1)C1(CCN(C3=NC(=O)C4(Cc5ccccc5C4)O3)CC1)OC2=O [Example 43, 2-methyl-1′-(4′-oxo-1,3-dihydro-4′H-spiro[indene-2,5′-[1,3]oxazol]-2′-yl)-5H-spiro[furo[3,4-b]pyridine-7,4′-piperidin]-5-one]	8.3	–
Cc1cnc2c(c1)COC21CCN(C2=NC(=O)C3(Cc4ccccc4C3)O2)CC1 [Example 44, 2′-(3-methyl-1′H,5H-spiro[furo[3,4-b]pyridine-7,4′-piperidin]-1′-yl)-1,3-dihydro-4′H-spiro[indene-2,5′-[1,3]oxazol]-4′-one]	8.7	–
O=C1N=C(N2CCC3(CC2)OCc2ccccc23)OC12Cc1cccnc1C2 (stereo not drawn) [Example 56, 2′-(1′H,3H-spiro[2-benzofuran-1,4′-piperidin]-1′-yl)-5,7-dihydro-4′H-spiro[cyclopenta[b]pyridine-6,5′-[1,3]oxazol]-4′-one]	8.2	–
Cc1cnc2c(c1)C1(CCN(C3=NC(=O)C4(Cc5ccccc5C4)O3)CC1)OC2=O [Example 53, 3-methyl-1′-(4′-oxo-1,3-dihydro-4′H-spiro[indene-2,5′-[1,3]oxazol]-2′-yl)-7H-spiro[furo[3,4-b]pyridine-5,4′-piperidin]-7-one]	7.4	–
Cc1cccc2c1COC21CCN(C2=NC(=O)C3(Cc4ccccc4C3)O2)CC1 [Example 4]	8.2	–
Cc1ccc2c(n1)C(=O)OC21CCN(C2=NC(=O)C3(Cc4ccccc4C3)O2)CC1 [Example 49, 2-methyl-1′-(4′-oxo-1,3-dihydro-4′H-spiro[indene-2,5′-[1,3]oxazol]-2′-yl)-7H-spiro[furo[3,4-b]pyridine-5,4′-piperidin]-7-one]	7.0	–
CC1(C)OC2(CCN(C3=NC(=O)C4(Cc5cccc(O)c5C4)O3)CC2)c2cccnc21 (stereo not drawn) [Example 69, 2′-(7,7-dimethyl-1′H,7H-spiro[furo[3,4-b]pyridine-5,4′-piperidin]-1′-yl)-4-hydroxy-1,3-dihydro-4′H-spiro[indene-2,5′-[1,3]oxazol]-4′-one]	9.3	–
O=C1OC2(CCN(C3=NC(=O)C4(Cc5ccccc5C4)O3)CC2)c2cccc(F)c21 [Example 14, 4-fluoro-1′-(4′-oxo-1,3-dihydro-4′H-spiro[indene-2,5′-[1,3]oxazol]-2′-yl)-3H-spiro[2-benzofuran-1,4′-piperidin]-3-one]	8.5	–
O=C1N=C(N2CCC3(CC2)OCc2ccccc23)OC12Cc1cc(F)c(F)cc1C2 [Example 34, 5,6-difluoro-2′-(1′H,3H-spiro[2-benzofuran-1,4′-piperidin]-1′-yl)-1,3-dihydro-4′H-spiro[indene-2,5′-[1,3]oxazol]-4′-one]	9.4	–
CC1(C)OC2(CCN(C3=NC(=O)C4(Cc5ccc(O)cc5C4)O3)CC2)c2cccnc21 (stereo not drawn) [Example 41, 2′-(7,7-dimethyl-1′H,7H-spiro[furo[3,4-b]pyridine-5,4′-piperidin]-1′-yl)-5-hydroxy-1,3-dihydro-4′H-spiro[indene-2,5′-[1,3]oxazol]-4′-one]	8.9	–
O=C1OC2(CCN(C3=NC(=O)[C@@]4(CCc5ccccc5C4)O3)CC2)c2ccccc21 (single isomer, unassigned; enantiomer b) [Example 67, 1′-[4′-oxo-3,4-dihydro-1H,4′H-spiro[naphthalene-2,5′-[1,3]oxazol]-2′-yl]-1′H,3H-spiro[2-benzofuran-1,4′-piperidin]-3-one enantiomer B]	–	3.98 nM
CC1(C)OC2(CCN(C3=NC(=O)C4(Cc5ccccc5C4)O3)CC2)c2ccc(O)nc21 [Example 72, 2′-(2-hydroxy-7,7-dimethyl-1′H,7H-spiro[furo[3,4-b]pyridine-5,4′-piperidin]-1′-yl)-1,3-dihydro-4′H-spiro[indene-2,5′-[1,3]oxazol]-4′-one]	8.5	–
O=C1N=C(N2CCC3(CC2)OCc2ccccc23)O[C@]12CCc1ccccc12 [Example 19, (−)-2′-(1H,3H-spiro[2-benzofuran-1,4′-piperidin]-1′-yl)-2,3-dihydro-4′H-spiro[indene-1,5′-[1,3]oxazol]-4′-one]	7.6	–

Source: patent US11578077B2, “Spiro-oxazolones” (Hoffmann-La Roche Inc., priority 2013, dated 2023)
